Laboratory results taken from patent US20140113958A1, “HCV Combination Therapy” (priority 2011, published 2014).
Where “and” joins values, the source holds several entries; their conditions need not be identical. Identical values can stand only once. Entries after “also recorded” stand apart in the source; their conditions may differ. Like-named read-outs stand apart in the source and are kept apart here.

What was measured:
[1] = system: wild-type HCV genotype 1b replicon; test: Transient transfection replicon assay in Huh 7 cells (luciferase, 72 hours), wild-type; assay type: cell-based
[2] = system: HCV genotype Ib replicon (I389luc-ubi-neo/NS3-3′/ET) in Huh-luc/neo-ET cells; assay type: cell-based; settings: for Efficacy, Antagonism vol / Interaction: second drug in combination with miravirsen (SPC3649); for Efficacy, Antagonism vol: 95% confidence interval, median (≧3 experiments) or individual values; for Interaction: overall
Protocol: The anti-viral efficacy and cellular toxicity of non-transfected antimiR oligonucleotide in combination with approved and experimental anti-HCV therapeutics (e.g. NM283, 2′-C-methylcytidine, and/or VX-222) (or other NS5B polymerase inhibitors) was determined in the reporter cell line Huh-luc/neo-ET. This cell line harbors the persistently replicating I389luc-ubi-neo/NS3-3′/ET replicon containing the firefly luciferase gene-ubiquitin-neomycin phosphotransferase fusion protein and EMCV IRES driven NS3-5B HCV coding sequences containing the ET tissue culture adaptive mutations (E1202G, T1208I, and K1846T). Eight dilutions of non-transfected antimiR oligonucleotide (bracketing the calculated EC50) were evaluated in triplicate on duplicate sets of three plates with five dilutions of each of the control compounds (bracketing the calculated EC50). One set of plates was used for the determination of cellular toxicity and the other set of plates was used for the determination of anti-viral efficacy. The efficacy and toxicity results was quantified with firefly luciferase activity and XTT dye reduction, respectively, and the results of the assay is imported into the Prichard and Shipman MacSynergy II software program. The MacSynery II analysis includes calculation of the dose response of the two (or more) compounds when used alone followed by calculation of the expected additive level of antiviral inhibition or toxicity when the compounds are used together based on the individual dose response curves. The expected level of activity at each of the concentration data points was compared to the experimentally determined antiviral activity in the assay. The expected activity was subtracted from the realized activity, yielding a negative, zero or positive value. These values are plotted as a three dimensional representation of the data and the result is reported as a two-factor value, expressing the combined average above the expected level of activity (synergy volume) and the combined average below the expected level of activity (antagonism volume). Combination analysis was performed two or more times for each pair of test compound and control substance.
The reporter cell line Huh-luc/neo-ET was obtained from Dr. Ralf Bartenschlager (Department of Molecular Virology, Hygiene Institute, University of Heidelberg, Germany) by ImQuest BioSciences. This cell line harbors the persistently replicating 1389luc-ubi-neo/NS3-3′IET replicon containing the firefly luciferase gene-ubiquitinneomycin phosphotransferase fusion protein and EMCV IRES driven NS3-5B HCV coding sequences containing the ET tissue culture adaptive mutations (E 1202G, T12081, and KI846T). A stock culture of the Huh-luc/neo-ET was expanded by culture in DMEM supplemented with 10% FBS, 2 mM glutamine, penicillin (100 IU/mL)/streptomycin (100 f·Ig/mL) and IX nonessential amino acids plus I mg/ml G418. Prior to plating, the cells were split 1:4 and cultured for two passages in the same medium plus 250 f·Ig/mL G418. The cells were treated with trypsin and enumerated by staining with trypan blue and seeded into 96-well tissue culture plates at a cell culture density 5.0×10^3 cells per well in a volume of 85 f·IL per well and incubated at […] in an environment of 5% CO2 for 24 hours. Six plates were established for the determination of combination efficacy (EC50) and cytotoxicity (TC50) for each of the compound combinations (three plates each for efficacy and toxicity). Following the 24 hour incubation, eight 2-fold serial dilutions of SPC3649 in cell culture medium without G418 were prepared (final in well high test concentration of 1.20 μM to 2.40 μM) and added to the cells and five 2-fold or 5-fold serial dilutions of control compounds in cell culture medium without G418 were prepared and added to the cells.

[3] = system: HCV genotype 1b replicon NS5B M423I; assay type: cell-based; settings: EC50 mutant / EC50 wild-type; mean of two experiments (individual values)
Protocol: (§1) The in vitro antiviral of miravirsen was evaluated against wild-type HCV genotype 1b replicon and HCV genotype 1b replicons constructed to contain key amino acid substitutions in NS3 protease (A156T, R155K), NS5B polymerase (S282T, M423I) and NS5A protein (Y93H) in transient transfection assays utilizing Huh 7 cells. […] Huh 7 cells were transfected with either the wild-type or the mutant RNA constructs by electroporation. Luciferase activity was measured 72 hours after compound treatment and EC50 values determined from dose-response curves. Fold resistance was expressed as the ratio of the EC50 for mutant HCV replicon to the EC50 for wild-type HCV replicon.
(§2) The in vitro antiviral of miravirsen was evaluated against wild-type HCV genotype 1b replicon and HCV replicons constructed to contain key amino acid substitutions in NS3 protease (A156T, R155K), NS5B polymerase (S282T, M423I) and NS5A protein (Y93H) in transient transfection assays. […] Huh 7 cells were transfected with either the wild type or the mutant RNA constructs by electroporation. Luciferase activity was measured 72 hours after compound treatment and EC50 values determined from dose-response curves. Fold resistance was expressed as the ratio of the EC50 for mutant HCV replicon to the EC50 for wild-type HCV replicon. Results are expressed as the mean of two individual experiments. In an initial set of experiments, the standard protocol was modified by adding compounds 24 hours after electroporation. […] In a third experiment cells were pretreated with miravirsen for 24 hours before electroporation with wild-type RNA constructs to determine if preincubation could result in increased miravirsen antiviral activity.

[4] = system: HCV genotype 1b replicon NS5A Y93H; assay type: cell-based; settings: EC50 mutant / EC50 wild-type; mean of two experiments (individual values)
Protocol: as §1, §2

HCV = HCV RNA suppression in vivo
cytochrome 450 = test: Metabolism by cytochrome 450 mechanisms; assay type: in vitro ADME
HCV genotype 1 = test: Phase 2a clinical trial, miravirsen monotherapy; assay type: in vivo, human; settings: for mean of the maximum HCV RNA decline from baseline: 5 weekly doses subcutaneously over 29 days, chronic HCV genotype 1 patients
Protocol: Thirty-six treatment-naïve chronic HCV genotype 1 infected patients were enrolled into 3 sequential dosing cohorts and received 5 weekly doses of miravirsen 3, 5, or 7 mg/kg (n=27) or placebo (n=9) subcutaneously over 29 days and were followed up until week 18.

all HCV genotypes = test: Activity against HCV genotypes in vitro; assay type: cell-based
[5] = system: drug-resistant HCV genotype 1b replicons (NS3, NS5A, NS5B)
Protocol: as §1
The in vitro antiviral of miravirsen was evaluated against wild-type HCV genotype 1b replicon and HCV replicons constructed to contain key amino acid substitutions in NS3 protease (A156T, R155K), NS5B polymerase (S282T, M423I) and NS5A protein (Y93H) in transient transfection assays. […] Huh 7 cells were transfected with either the wild type or the mutant RNA constructs by electroporation. Luciferase activity was measured 72 hours after compound treatment and EC50 values determined from dose-response curves. Fold resistance was expressed as the ratio of the EC50 for mutant HCV replicon to the EC50 for wild-type HCV replicon. Results are expressed as the mean of two individual experiments. […]

[6] = chronic HCV genotype 1 infected patients

## 5′-^mCs^ocsAs^otstsGs^oTs^ocsas^mCs^oas^mCs^ots^mCs^omC^o-3′ (CCATTGTCACACTCC; all phosphorothioate, sugars by position and methylation of C not given here; further chemistry not fully specified) [miravirsen]
[1]; Huh 7 cells preincubated with miravirsen 24 hours before electroporation with wild-type RNA, read-out: EC50
  EC50: 25.6 µM
[1]; wild-type HCV, transient transfection assays, read-out: average EC50
  EC50: 36.7 µM
[2]; in combination with ribavirin
  overall antiviral interaction: apparent synergy
[2]; previously reported against stable HCV cell lines, read-out: average EC50
  EC50: 0.671 µM
[2]; read-out: EC50 (+/− SD)
  EC50: 0.67 µM
[3]
  fold change in susceptibility, NS5B M423I: 1.7 (2.3, 1.0) fold
[4]
  fold change in susceptibility, NS5A Y93H: 0.9 (0.8, 0.9) fold
HCV
  HCV RNA suppression in vivo: long-lasting HCV RNA suppression without emergence of resistance
Cytochrome 450
  metabolism by cytochrome 450 mechanisms: not metabolized by cytochrome 450 mechanisms
HCV genotype 1; 3 mg/kg
  mean of the maximum HCV RNA decline from baseline: 1.2 log10IU/mL
HCV genotype 1; 5 mg/kg cohort
  patients who achieved undetectable HCV RNA: One
HCV genotype 1; 5 mg/kg
  mean of the maximum HCV RNA decline from baseline: 2.9 log10IU/mL
HCV genotype 1; 7 mg/kg cohort
  patients who achieved undetectable HCV RNA: four
HCV genotype 1; 7 mg/kg
  mean of the maximum HCV RNA decline from baseline: 3.0 log10IU/mL
HCV genotype 1; 3, 5 or 7 mg/kg
  dose-limiting adverse events: no dose-limiting adverse events
  escape mutations in the HCV genome miR-122 binding sites: no escape mutations were observed
HCV genotype 1; [6]
  emergence of viral resistance: not seen
  reduction in HCV RNA: prolonged dose-dependent reductions in HCV RNA levels
  safety and tolerability: safe, well-tolerated
HCV genotype 1; chronic HCV genotype 1 infected patients, listed as Miravirsen
  reduction in HCV RNA: dose-dependent reduction in HCV RNA that was prolonged well beyond the end of active therapy
HCV genotype 1; four week clinical trial to assess safety and tolerability
  HCV titre: below detection
All HCV genotypes
  activity against HCV genotypes in vitro: activity against all HCV genotypes in vitro; also recorded: effective against all HCV genotypes in vitro
[5]; all drug-resistant HCV variants tested
  fold changes in resistance: less than 2 fold
[5]; replicons resistant to NS3, NS5A and NS5B inhibitors
  antiviral activity against drug-resistant replicons: broad antiviral activity

## CCC[C@H](NC(=O)[C@@H]1[C@H]2CCC[C@H]2CN1C(=O)[C@@H](NC(=O)[C@@H](NC(=O)c1cnccn1)C1CCCCC1)C(C)(C)C)C(=O)C(=O)NC1CC1 [Telaprevir, (1S,3aR,6aS)-2-[(2S)-2-[[(2S)-2-Cyclohexyl-2-(pyrazine-2-carbonylamino)acetyl]amino]-3,3-dimethylbutanoyl]-N-[(3S)-1-(cyclopropylamino)-1,2-dioxohexan-3-yl]-3,3a,4,5,6,6a-hexahydro-1H-cyclopenta[c]pyrrole-1-carboxamide]
[2]; in combination with ribavirin
  overall antiviral interaction: inconclusive
[2]; in combination with ribavirin, 95% confidence level, individual values
  Efficacy, Antag Vol: 0.00/−200.2 μM^2% and 37.5/−22.6; μM^2%
[2]
  Efficacy, Antagonism vol: 0/−3.2 μM^2%
  Interaction: Positive
[2]; listed as telaprevir
  Efficacy, Antagonism vol: −3.22 μM^2%
  Interaction: positive interaction
